Results from ChEMBL document CHEMBL3792360, “Antibacterial activity of Mannich bases derived from 2-naphthols, aromatic aldehydes and secondary aliphatic amines” (2016).
In brackets after ≈: the same amount, converted by molar mass.

Tests used:
Type in all cases: functional
[1] = tested on: Pseudomonas aeruginosa; assay: Antibacterial activity against Pseudomonas aeruginosa CIP 82118 after 16 to 20 hrs by broth microdilution method
[2] = tested on: Proteus vulgaris; assay: Antibacterial activity against Proteus vulgaris CIP 104989 after 16 to 20 hrs by broth microdilution method
[3] = tested on: Enterobacter cloacae; assay: Antibacterial activity against Enterobacter cloacae CIP 103475 after 16 to 20 hrs by broth microdilution method
[4] = tested on: Escherichia coli; assay: Antibacterial activity against Escherichia coli ATCC 35218 after 16 to 20 hrs by broth microdilution method
[5] = tested on: Enterococcus faecalis; assay: Antibacterial activity against Enterococcus faecalis ATCC 25912 after 16 to 20 hrs by broth microdilution method
[6] = tested on: Staphylococcus aureus; assay: Antibacterial activity against methicillin-resistant Staphylococcus aureus ATCC 43300 after 16 to 20 hrs by broth microdilution method
[7] = tested on: Escherichia coli; assay: Antibacterial activity against Escherichia coli ATCC 25922 after 16 to 20 hrs by broth microdilution method
[8] = tested on: Klebsiella pneumoniae; assay: Antibacterial activity against Klebsiella pneumoniae CIP 53153 after 16 to 20 hrs by broth microdilution method
[9] = tested on: Staphylococcus aureus; assay: Antibacterial activity against Staphylococcus aureus […] after 16 to 20 hrs by broth microdilution method
[10] = tested on: Citrobacter freundii; assay: Antibacterial activity against Citrobacter freundii CIP 5732 after 16 to 20 hrs by broth microdilution method

Row | SMILES | MIC [1] [µg/mL] | MIC [2] [µg/mL] | MIC [3] [µg/mL] | MIC [4] [µg/mL] | MIC [5] [µg/mL] | MIC [6] [µg/mL] | MIC [7] [µg/mL] | MIC [8] [µg/mL] | MIC [9] [µg/mL] | MIC [10] [µg/mL]
1 | CC1(C)S[C@@H]2[C@H](NC(=O)[C@H](N)c3ccc(O)cc3)C(=O)N2[C@H]1C(=O)O [AMOXICILLIN] | > 512 | 256 (≈ 701 µM) | 256 (≈ 701 µM) | 2 (≈ 5.47 µM) | 0.25 (≈ 0.684 µM) | 8 (≈ 21.9 µM) | 2 (≈ 5.47 µM) | 256 (≈ 701 µM) | 0.06 (≈ 0.164 µM) | 125 (≈ 342 µM)
2 | Oc1ccc2ccccc2c1C(c1ccc(Br)s1)N1CCCCC1 (stereo not given) | > 512 | > 512 | > 512 | > 512 | 16 (≈ 39.8 µM) | 16 (≈ 39.8 µM) | > 512 | > 512 | 8 (≈ 19.9 µM) | > 512
3 | Oc1ccc2ccccc2c1C(c1cccs1)N1CCN(c2ccccc2)CC1 (stereo not given) | > 512 | > 512 | > 512 | > 512 | > 512 | 16 (≈ 39.9 µM) | > 512 | > 512 | 64 (≈ 160 µM) | > 512
4 | CC1CCN(C(c2ccccc2)c2c(O)ccc3ccccc23)CC1 (stereo not given) | > 512 | > 512 | > 512 | > 512 | > 512 | > 512 | > 512 | > 512 | > 512 | > 512
5 | CC1CCN(C(c2cccc3ccccc23)c2c(O)ccc3cc(Br)ccc23)CC1 (stereo not given) | > 512 | > 512 | > 512 | > 512 | > 512 | > 512 | > 512 | > 512 | > 512 | > 512
6 | COc1ccc2ccc(O)c(C(c3cccs3)N3CCC(C)CC3)c2c1 (stereo not given) | > 512 | > 512 | > 512 | > 512 | 64 (≈ 174 µM) | 16 (≈ 43.5 µM) | > 512 | > 512 | 16 (≈ 43.5 µM) | > 512
7 | CC1CCN(C(c2ccccc2)c2c(O)ccc3cc(Br)ccc23)CC1 (stereo not given) | > 512 | > 512 | > 512 | > 512 | > 512 | > 512 | > 512 | > 512 | > 512 | > 512
8 | Cc1cc(C)cc(C(c2c(O)ccc3ccccc23)N2CCCCC2)c1 (stereo not given) | > 512 | > 512 | > 512 | > 512 | > 512 | > 512 | > 512 | > 512 | 4 (≈ 11.6 µM) | > 512
9 | Oc1ccc2ccccc2c1C(c1cccs1)N1CCOCC1 (stereo not given) | > 512 | > 512 | > 512 | > 512 | 32 (≈ 98.3 µM) | 32 (≈ 98.3 µM) | > 512 | > 512 | 32 (≈ 98.3 µM) | > 512
10 | Oc1ccc2ccccc2c1C(c1ccc(F)cc1)N1CCCCC1 (stereo not given) | > 512 | > 512 | > 512 | > 512 | > 512 | > 512 | > 512 | > 512 | 8 (≈ 23.9 µM) | > 512
11 | CN1CCN(C(c2cccs2)c2c(O)ccc3ccccc23)CC1 (stereo not given) | > 512 | > 512 | > 512 | > 512 | 32 (≈ 94.5 µM) | 32 (≈ 94.5 µM) | > 512 | > 512 | 32 (≈ 94.5 µM) | > 512
12 | COc1ccc2ccc(O)c(C(c3cccs3)N3CCCCC3)c2c1 (stereo not given) | > 512 | > 512 | > 512 | > 512 | 32 (≈ 90.5 µM) | 16 (≈ 45.3 µM) | > 512 | > 512 | 16 (≈ 45.3 µM) | > 512
13 | CN(C)C(c1cccs1)c1c(O)ccc2ccccc12 (stereo not given) | > 512 | 128 (≈ 452 µM) | > 512 | > 512 | 16 (≈ 56.5 µM) | 16 (≈ 56.5 µM) | > 512 | > 512 | 16 (≈ 56.5 µM) | > 512
14 | Oc1ccc2cc(Br)ccc2c1C(c1cccc2ccccc12)N1CCCCC1 (stereo not given) | > 512 | > 512 | > 512 | > 512 | > 512 | > 512 | > 512 | > 512 | > 512 | > 512
15 | Cc1cc(C)cc(C(c2c(O)ccc3ccccc23)N2CCC(C)CC2)c1 (stereo not given) | > 512 | > 512 | > 512 | > 512 | > 512 | > 512 | > 512 | > 512 | > 512 | > 512
16 | COc1ccc2ccc(O)c(C(c3cccc4ccccc34)N3CCC(C)CC3)c2c1 (stereo not given) | > 512 | > 512 | > 512 | > 512 | > 512 | > 512 | > 512 | > 512 | > 512 | > 512

Row | SMILES | MIC [1] [µg/mL] | MIC [2] [µg/mL] | MIC [3] [µg/mL] | MIC [4] [µg/mL] | MIC [5] [µg/mL] | MIC [6] [µg/mL] | MIC [7] [µg/mL] | MIC [8] [µg/mL] | MIC [9] [µg/mL] | MIC [10] [µg/mL]
17 | CC1CCN(C(c2cccc3ccccc23)c2c(O)ccc3ccccc23)CC1 (stereo not given) | > 512 | > 512 | > 512 | > 512 | > 512 | > 512 | > 512 | > 512 | > 512 | > 512
18 | Oc1ccc2cc(Br)ccc2c1C(c1ccccc1)N1CCCCC1 (stereo not given) | > 512 | > 512 | > 512 | > 512 | > 512 | > 512 | > 512 | > 512 | > 512 | > 512
19 | COc1ccc2ccc(O)c(C(c3ccccn3)N3CCC(C)CC3)c2c1 (stereo not given) | > 512 | > 512 | > 512 | > 512 | > 512 | > 512 | > 512 | > 512 | > 512 | > 512
20 | Oc1ccc2cc(Br)ccc2c1C(c1cccc(Cl)c1)N1CCCCC1 (stereo not given) | > 512 | > 512 | > 512 | > 512 | > 512 | > 512 | > 512 | > 512 | 8 (≈ 18.6 µM) | > 512
21 | Oc1ccc2ccccc2c1C(c1cccc2ccccc12)N1CCCCC1 (stereo not given) | > 512 | > 512 | > 512 | > 512 | > 512 | > 512 | > 512 | > 512 | > 512 | > 512
22 | CC1CCN(C(c2ccc(Br)s2)c2c(O)ccc3ccccc23)CC1 (stereo not given) | > 512 | > 512 | > 512 | > 512 | 16 (≈ 38.4 µM) | 16 (≈ 38.4 µM) | > 512 | > 512 | 8 (≈ 19.2 µM) | > 512
23 | Oc1ccc2ccccc2c1C(c1cccs1)N1CCCC1 (stereo not given) | > 512 | > 512 | > 512 | > 512 | 32 (≈ 103 µM) | 32 (≈ 103 µM) | > 512 | > 512 | 32 (≈ 103 µM) | > 512
24 | Oc1ccc2cc(Br)ccc2c1C(c1cccs1)N1CCCCC1 (stereo not given) | > 512 | > 512 | > 512 | > 512 | 16 (≈ 39.8 µM) | 8 (≈ 19.9 µM) | > 512 | > 512 | 8 (≈ 19.9 µM) | > 512
25 | COc1ccc2ccc(O)c(C(c3cccc4ccccc34)N3CCCCC3)c2c1 (stereo not given) | > 512 | > 512 | > 512 | > 512 | > 512 | > 512 | > 512 | > 512 | > 512 | > 512
26 | CC1CCN(C(c2cccs2)c2c(O)ccc3ccccc23)CC1 (stereo not given) | > 512 | > 512 | > 512 | > 512 | 16 (≈ 47.4 µM) | 8 (≈ 23.7 µM) | > 512 | > 512 | 8 (≈ 23.7 µM) | > 512
27 | Oc1ccc2ccccc2c1C(c1cccs1)N1CCCCC1 (stereo not given) | > 512 | > 512 | > 512 | > 512 | 32 (≈ 98.9 µM) | 8 (≈ 24.7 µM) | > 512 | > 512 | 16 (≈ 49.5 µM) | > 512
28 | Oc1ccc2ccccc2c1C(c1cccs1)n1nnc2ccccc21 (stereo not given) | > 512 | > 512 | > 512 | > 512 | > 512 | 16 (≈ 44.8 µM) | > 512 | > 512 | 16 (≈ 44.8 µM) | > 512
29 | CC1CCN(C(c2ccc(F)cc2)c2c(O)ccc3ccccc23)CC1 (stereo not given) | > 512 | > 512 | > 512 | > 512 | > 512 | > 512 | > 512 | > 512 | > 512 | > 512
30 | CC1CCN(C(c2cccc(Cl)c2)c2c(O)ccc3cc(Br)ccc23)CC1 (stereo not given) | > 512 | > 512 | > 512 | > 512 | > 512 | > 512 | > 512 | > 512 | > 512 | > 512
31 | COc1ccc2ccc(O)c(C(c3ccccc3)N3CCC(C)CC3)c2c1 (stereo not given) | > 512 | > 512 | > 512 | > 512 | > 512 | > 512 | > 512 | > 512 | 8 (≈ 22.1 µM) | > 512
